PubChem BioAssay AID1259407 (Chemical Carcinogenesis Research Information System (CCRIS), 2018)
Activity calls are given as the source filed them. The rule behind the calls is not given here.

System: CCRIS mutagenicity, Ames/micronucleus/aberration tests
Experiment: CCRIS mutagenicity studies
[1] = Test System: AMES SALMONELLA TYPHIMURIUM, Strain/Indicator: TA97, Metabolic Activation: HAMSTER, LIVER, S-9, AROCLOR 1254 (10%), Method: PREINCUBATION
[2] = Test System: AMES SALMONELLA TYPHIMURIUM, Strain/Indicator: TA97, Metabolic Activation: NONE, Method: PREINCUBATION
[3] = Test System: AMES SALMONELLA TYPHIMURIUM, Strain/Indicator: TA97, Metabolic Activation: RAT, LIVER, S-9, AROCLOR 1254 (10%), Method: PREINCUBATION
[4] = Test System: AMES SALMONELLA TYPHIMURIUM, Strain/Indicator: TA98, Metabolic Activation: RAT, LIVER, S-9, AROCLOR 1254 (10%), Method: PREINCUBATION
[5] = Test System: AMES SALMONELLA TYPHIMURIUM, Strain/Indicator: TA100, Metabolic Activation: NONE, Method: PREINCUBATION
[6] = Test System: AMES SALMONELLA TYPHIMURIUM, Strain/Indicator: TA100, Metabolic Activation: RAT, LIVER, S-9, AROCLOR 1254 (10%), Method: PREINCUBATION
[7] = Test System: AMES SALMONELLA TYPHIMURIUM, Strain/Indicator: TA100, Metabolic Activation: RAT, LIVER, S-9, AROCLOR 1254 (30%), Method: PREINCUBATION
[8] = Test System: AMES SALMONELLA TYPHIMURIUM, Strain/Indicator: TA1535, Metabolic Activation: HAMSTER, LIVER, S-9, AROCLOR 1254 (10%), Method: PREINCUBATION
[9] = Test System: AMES SALMONELLA TYPHIMURIUM, Strain/Indicator: TA1535, Metabolic Activation: HAMSTER, LIVER, S-9, AROCLOR 1254 (30%), Method: PREINCUBATION
[10] = Test System: AMES SALMONELLA TYPHIMURIUM, Strain/Indicator: TA1535, Metabolic Activation: NONE, Method: PREINCUBATION
[11] = Test System: AMES SALMONELLA TYPHIMURIUM, Strain/Indicator: TA1535, Metabolic Activation: RAT, LIVER, S-9, AROCLOR 1254 (10%), Method: PREINCUBATION
[12] = Test System: AMES SALMONELLA TYPHIMURIUM, Strain/Indicator: TA1535, Metabolic Activation: RAT, LIVER, S-9, AROCLOR 1254 (30%), Method: PREINCUBATION
[13] = Test System: AMES SALMONELLA TYPHIMURIUM, Strain/Indicator: TA1537, Metabolic Activation: HAMSTER, LIVER, S-9, AROCLOR 1254 (10%), Method: PREINCUBATION
[14] = Test System: AMES SALMONELLA TYPHIMURIUM, Strain/Indicator: TA1537, Metabolic Activation: NONE, Method: PREINCUBATION

## C=C1C[C@@]23CCC4[C@](C)(C(=O)O)CCC[C@@]4(C)[C@@H]2CC[C@]1(OC(C)=O)C3 (stereo partly drawn)
Test System: AMES SALMONELLA TYPHIMURIUM, Strain/Indicator: TM677, Metabolic Activation: RAT, LIVER, S-9, AROCLOR 1254, Method: PREINCUBATION
  mutagenic call: inactive; negative

## CCCS
Test System: MOUSE LYMPHOMA, Strain/Indicator: L5178Y (TK+/TK-), Metabolic Activation: RAT, LIVER, S-9, AROCLOR 1254, Method: SUSPENSION/PLATE
  mutagenic call: active; positive. reevaluation of results: equivocal
Test System: Mouse lymphoma, Strain/Indicator: L5178Y (tk+/tk-), Metabolic Activation: None, Method: Suspension/plate
  mutagenic call: inactive; negative

## CCCCCCCCCCCC(=O)O
[1]
  mutagenic call: inactive; negative
Test System: AMES SALMONELLA TYPHIMURIUM, Strain/Indicator: TA97, Metabolic Activation: HAMSTER, LIVER, S-9, AROCLOR 1254 (30%), Method: PREINCUBATION
  mutagenic call: inactive; negative
[2]
  mutagenic call: inactive; negative
[3]
  mutagenic call: inactive; negative
Test System: AMES SALMONELLA TYPHIMURIUM, Strain/Indicator: TA97, Metabolic Activation: RAT, LIVER, S-9, AROCLOR 1254 (30%), Method: PREINCUBATION
  mutagenic call: inactive; negative
Test System: AMES SALMONELLA TYPHIMURIUM, Strain/Indicator: TA98, Metabolic Activation: HAMSTER, LIVER, S-9, AROCLOR 1254 (10 OR 30%), Method: PREINCUBATION
  mutagenic call: inactive; negative
Test System: AMES SALMONELLA TYPHIMURIUM, Strain/Indicator: TA98, Metabolic Activation: NONE, Method: PREINCUBATION
  mutagenic call: inactive; negative
[4]
  mutagenic call: inactive; negative
Test System: AMES SALMONELLA TYPHIMURIUM, Strain/Indicator: TA98, Metabolic Activation: RAT, LIVER, S-9, AROCLOR 1254 (30%), Method: PREINCUBATION
  mutagenic call: inactive; negative
Test System: AMES SALMONELLA TYPHIMURIUM, Strain/Indicator: TA100, Metabolic Activation: HAMSTER, LIVER, S-9, AROCLOR 1254 (10 OR 30%), Method: PREINCUBATION
  mutagenic call: inactive; negative
[5]
  mutagenic call: inactive; negative
[6]
  mutagenic call: inactive; negative
[7]
  mutagenic call: inactive; negative
[8]
  mutagenic call: inactive; negative
[9]
  mutagenic call: inactive; negative
[10]
  mutagenic call: inactive; negative
[11]
  mutagenic call: inactive; negative
[12]
  mutagenic call: inactive; negative
[13]
  mutagenic call: inactive; negative
Test System: AMES SALMONELLA TYPHIMURIUM, Strain/Indicator: TA1537, Metabolic Activation: HAMSTER, LIVER, S-9, AROCLOR 1254 (30%), Method: PREINCUBATION
  mutagenic call: inactive; negative
[14]
  mutagenic call: inactive; negative
Test System: AMES SALMONELLA TYPHIMURIUM, Strain/Indicator: TA1537, Metabolic Activation: RAT, LIVER, S-9, AROCLOR 1254 (30%), Method: PREINCUBATION
  mutagenic call: inactive; negative

## CC(C)C1(C)N=C(c2ncccc2C(=O)O)NC1=O (stereo not drawn)
End Point: IN VIVO MICRONUCLEUS, Test System: BONE MARROW POLYCHROMATIC ERYTHROCYTES, Species: MOUSE, Strain/Sex: SWISS/MALE, FEMALE, Route: IP 2X IN AQUEOUS SUSPENSION WITHIN 24 HR
  mutagenic call: inactive; negative

## CC(=O)[O-].CC(=O)[O-].O.O.O.O.[Co+2]
End Point: In vitro chromosomal aberrations, Test System: Chinese hamster lung (CHL/IU) cells, Metabolic Activation: None
  mutagenic call: active; positive (structural changes)
End Point: In vitro chromosomal aberrations, Test System: Chinese hamster lung (CHL/IU) cells, Metabolic Activation: Rat, Liver, S9, Phenobarbital and 5,6-benzoflavone
  mutagenic call: active; positive (structural changes)
Test System: Ames Salmonella typhimurium, Strain/Indicator: TA98, Metabolic Activation: Rat, Liver, S9, Sodium phenobarbital and 5,6-benzoflavone (10%), Method: Preincubation
  mutagenic call: inactive; negative
Test System: Ames Salmonella typhimurium, Strain/Indicator: TA100, Metabolic Activation: Rat, Liver, S9, Sodium phenobarbital and 5,6-benzoflavone (10%), Method: Preincubation
  mutagenic call: inactive; negative
Test System: Ames Salmonella typhimurium, Strain/Indicator: TA1535, Metabolic Activation: None, Method: Preincubation
  mutagenic call: inactive; negative
Test System: Ames Salmonella typhimurium, Strain/Indicator: TA1535, Metabolic Activation: Rat, Liver, S9, Sodium phenobarbital and 5,6-benzoflavone (10%), Method: Preincubation
  mutagenic call: inactive; negative
Test System: Ames Salmonella typhimurium, Strain/Indicator: TA1537, Metabolic Activation: Rat, Liver, S9, Sodium phenobarbital and 5,6-benzoflavone (10%), Method: Preincubation
  mutagenic call: inactive; negative
Test System: E. coli, Strain/Indicator: WP2uvrA/pKM101, Metabolic Activation: None, Method: Preincubation
  mutagenic call: active; positive
Test System: E. coli, Strain/Indicator: WP2uvrA/pKM101, Metabolic Activation: Rat, Liver, S9, Sodium phenobarbital and 5,6-benzoflavone (10%), Method: Preincubation
  mutagenic call: inactive; negative

## O=[N+]([O-])CCO
Test System: AMES SALMONELLA TYPHIMURIUM, Strain/Indicator: TA97, Metabolic Activation: HAMSTER, LIVER, S-9, AROCLOR 1254 (5 OR 30%), Method: PREINCUBATION
  mutagenic call: inactive; negative
[1]
  mutagenic call: inactive; negative
[2]
  mutagenic call: inactive; negative
Test System: AMES SALMONELLA TYPHIMURIUM, Strain/Indicator: TA97, Metabolic Activation: RAT, LIVER, S-9, AROCLOR 1254 (5 OR 30%), Method: PREINCUBATION
  mutagenic call: inactive; negative
[3]
  mutagenic call: inactive; negative
Test System: AMES SALMONELLA TYPHIMURIUM, Strain/Indicator: TA98, Metabolic Activation: HAMSTER, LIVER, S-9, AROCLOR 1254 (10%), Method: PREINCUBATION
  mutagenic call: inactive; negative
[4]
  mutagenic call: inactive; negative
Test System: AMES SALMONELLA TYPHIMURIUM, Strain/Indicator: TA100, Metabolic Activation: HAMSTER, LIVER, S-9, AROCLOR 1254 (10%), Method: PREINCUBATION
  mutagenic call: inactive; negative
Test System: AMES SALMONELLA TYPHIMURIUM, Strain/Indicator: TA100, Metabolic Activation: HAMSTER, LIVER, S-9, AROCLOR 1254 (30%), Method: PREINCUBATION
  mutagenic call: inactive; negative
[5]
  mutagenic call: inactive; negative
[6]
  mutagenic call: inactive; negative
[7]
  mutagenic call: inactive; negative
[8]
  mutagenic call: inactive; negative
[9]
  mutagenic call: inactive; negative
[10]
  mutagenic call: inactive; negative
[11]
  mutagenic call: inactive; negative
[12]
  mutagenic call: inactive; negative
[13]
  mutagenic call: inactive; negative
[14]
  mutagenic call: inactive; negative
Test System: AMES SALMONELLA TYPHIMURIUM, Strain/Indicator: TA1537, Metabolic Activation: RAT, LIVER, S-9, AROCLOR 1254 (10%), Method: PREINCUBATION
  mutagenic call: inactive; negative
Test System: AMES SALMONELLA TYPHIMURIUM, Strain/Indicator: TA1538, Metabolic Activation: HAMSTER, LIVER, S-9, AROCLOR 1254 (30%), Method: PREINCUBATION
  mutagenic call: active; positive
Test System: AMES SALMONELLA TYPHIMURIUM, Strain/Indicator: TA1538, Metabolic Activation: NONE, Method: PREINCUBATION
  mutagenic call: active; positive
Test System: AMES SALMONELLA TYPHIMURIUM, Strain/Indicator: TA1538, Metabolic Activation: RAT, LIVER, S-9, AROCLOR 1254 (30%), Method: PREINCUBATION
  mutagenic call: active; positive
